Assay results: article PMC8007111, “Novel Potent Muscarinic Receptor Antagonists: Investigation on the Nature of Lipophilic Substituents in the 5- and/or 6-Positions of the 1,4-Dioxane Nucleus” (Journal of Medicinal Chemistry, 2020)

What was measured:
[1] = biological target: T1, hM1 mAChR (Homo sapiens, UniProt P11229); experiment: [3H]NMS inhibition radioligand binding, hM1 in CHO-K1 cell membranes; conditions: [3H]NMS, CHO-K1 cell membranes, mean ± S.E.M.; for Ki: read-out: pKi hM1 (converted)
T1 construct: expressed in transfected cells; host or cells: CHO-K1 (membrane preparation)
T1 sequence (P11229 1-460): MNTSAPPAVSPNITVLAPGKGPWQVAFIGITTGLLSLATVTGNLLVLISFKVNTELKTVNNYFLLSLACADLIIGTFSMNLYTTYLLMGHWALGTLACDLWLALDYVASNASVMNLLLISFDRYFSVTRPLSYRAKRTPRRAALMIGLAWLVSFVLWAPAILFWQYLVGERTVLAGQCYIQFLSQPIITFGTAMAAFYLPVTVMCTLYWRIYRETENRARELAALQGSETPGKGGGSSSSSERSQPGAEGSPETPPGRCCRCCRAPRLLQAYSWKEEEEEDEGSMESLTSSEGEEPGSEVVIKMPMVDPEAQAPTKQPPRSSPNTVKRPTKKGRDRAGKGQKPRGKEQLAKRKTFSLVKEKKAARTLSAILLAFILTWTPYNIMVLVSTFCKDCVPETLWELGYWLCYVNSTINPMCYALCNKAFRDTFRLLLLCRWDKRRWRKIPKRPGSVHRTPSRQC
Experimental: (§1) CHO-K1 cells stably transfected with the human muscarinic receptor subtypes (hM1–5) were grown in Dulbecco’s modified Eagle’s medium (DMEM) with nutrient mixture F12 (DMEM/F12, 50/50), containing 10% fetal bovine serum, penicillin (100 U/mL), streptomycin (100 U/mL), L-glutamine (4 mM), and geneticin (G-418, 50 μg/mL) at 37 °C in a 5% CO2 humidified incubator. […] Serum (0.7 mL) was added to inactivate the trypsin, and the cells were spun down by centrifuging at 300g for 5 min. The cells were then resuspended in ice-cold 25 mM sodium phosphate buffer containing 5 mM MgCl2, pH 7.4 (binding buffer) and homogenized using a cell disrupter (Ultra-Turrax, setting 3, 30 s). The homogenate was sedimented by centrifugation (17,000g, 15 min). The supernatant was discarded, and the resulting membrane pellets were resuspended with Ultra-Turrax in the same buffer to give a final protein concentration of 1–2 mg/mL. The protein content was determined by the method of Bradford (1976) with bovine serum albumin (Sigma) as a standard and stored at −80 °C.
(§2) Inhibition radioligand binding assays were conducted as previously described[48],[49] with 0.2 nM [^3H]NMS in binding buffer in a final volume of 250 μL. Nonspecific binding was defined in the presence of 10 μM atropine. Briefly, membrane fractions (about 25–70 μg/mL of protein) were incubated with radioligand and unlabeled test compounds for 2 h at r.t. Bound and free radioactivity were separated by filtering the assay mixture through UniFilter GF/B plates using a FilterMate Cell Harvester (PerkinElmer Life and Analytical Science). The filter bound radioactivity was counted by a TopCount NXT Microplate Scintillation Counter (PerkinElmer Life and Analytical Science). Data (cpm) were normalized to percentage-specific binding and analyzed using a four-parameter logistic equation in GraphPad Prism 5.02; IC50 values were determined, and Ki values were calculated.[59]

[2] = biological target: T2, hM2 mAChR (Homo sapiens, UniProt P08172); experiment: [3H]NMS inhibition radioligand binding, hM2 in CHO-K1 cell membranes; conditions: [3H]NMS, CHO-K1 cell membranes, mean ± S.E.M.; for Ki: read-out: pKi hM2 (converted)
T2 construct: expressed in transfected cells; host or cells: CHO-K1 (membrane preparation)
T2 sequence (P08172 1-466): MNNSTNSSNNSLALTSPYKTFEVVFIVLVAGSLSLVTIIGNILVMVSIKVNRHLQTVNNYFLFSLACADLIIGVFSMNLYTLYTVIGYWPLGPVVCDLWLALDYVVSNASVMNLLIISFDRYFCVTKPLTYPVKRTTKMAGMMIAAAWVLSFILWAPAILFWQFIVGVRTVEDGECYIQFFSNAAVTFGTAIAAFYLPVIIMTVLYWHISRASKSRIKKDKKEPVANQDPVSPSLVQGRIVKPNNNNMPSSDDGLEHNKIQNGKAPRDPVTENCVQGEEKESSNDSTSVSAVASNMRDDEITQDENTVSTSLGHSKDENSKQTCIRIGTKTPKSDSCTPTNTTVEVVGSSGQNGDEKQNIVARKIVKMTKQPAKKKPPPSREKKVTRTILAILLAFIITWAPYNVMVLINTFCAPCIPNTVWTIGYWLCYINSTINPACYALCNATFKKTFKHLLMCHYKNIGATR
Experimental: as §1, §2

[3] = biological target: T3, hM3 mAChR (Homo sapiens, UniProt P20309); experiment: [3H]NMS inhibition radioligand binding, hM3 in CHO-K1 cell membranes; conditions: for pKi hM3 / Ki: [3H]NMS, CHO-K1 cell membranes, mean ± S.E.M.; for Ki: read-out: pKi hM3 (converted)
T3 construct: expressed in transfected cells; host or cells: CHO-K1 (membrane preparation)
T3 sequence (P20309 whole entry): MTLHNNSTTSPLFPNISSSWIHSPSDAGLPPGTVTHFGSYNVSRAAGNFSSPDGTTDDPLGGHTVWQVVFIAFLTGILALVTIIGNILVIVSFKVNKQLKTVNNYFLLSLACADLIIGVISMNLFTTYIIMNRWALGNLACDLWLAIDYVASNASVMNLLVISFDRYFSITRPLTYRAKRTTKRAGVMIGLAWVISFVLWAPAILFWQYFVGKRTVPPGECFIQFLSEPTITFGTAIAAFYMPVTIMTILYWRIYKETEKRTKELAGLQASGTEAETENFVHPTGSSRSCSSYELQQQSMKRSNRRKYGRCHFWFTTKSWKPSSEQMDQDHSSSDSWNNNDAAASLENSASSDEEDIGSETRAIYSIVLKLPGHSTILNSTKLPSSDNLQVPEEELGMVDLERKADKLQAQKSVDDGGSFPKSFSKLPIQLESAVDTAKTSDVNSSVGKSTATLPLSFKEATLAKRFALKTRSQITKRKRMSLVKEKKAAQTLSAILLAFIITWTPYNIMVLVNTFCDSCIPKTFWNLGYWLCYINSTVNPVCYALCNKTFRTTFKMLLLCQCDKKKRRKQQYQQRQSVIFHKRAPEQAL
Experimental: as §1, §2

[4] = biological target: T4, hM4 mAChR (Homo sapiens, UniProt P08173); experiment: [3H]NMS inhibition radioligand binding, hM4 in CHO-K1 cell membranes; conditions: [3H]NMS, CHO-K1 cell membranes, mean ± S.E.M.; for Ki: read-out: pKi hM4 (converted)
T4 construct: expressed in transfected cells; host or cells: CHO-K1 (membrane preparation)
T4 sequence (P08173 1-479): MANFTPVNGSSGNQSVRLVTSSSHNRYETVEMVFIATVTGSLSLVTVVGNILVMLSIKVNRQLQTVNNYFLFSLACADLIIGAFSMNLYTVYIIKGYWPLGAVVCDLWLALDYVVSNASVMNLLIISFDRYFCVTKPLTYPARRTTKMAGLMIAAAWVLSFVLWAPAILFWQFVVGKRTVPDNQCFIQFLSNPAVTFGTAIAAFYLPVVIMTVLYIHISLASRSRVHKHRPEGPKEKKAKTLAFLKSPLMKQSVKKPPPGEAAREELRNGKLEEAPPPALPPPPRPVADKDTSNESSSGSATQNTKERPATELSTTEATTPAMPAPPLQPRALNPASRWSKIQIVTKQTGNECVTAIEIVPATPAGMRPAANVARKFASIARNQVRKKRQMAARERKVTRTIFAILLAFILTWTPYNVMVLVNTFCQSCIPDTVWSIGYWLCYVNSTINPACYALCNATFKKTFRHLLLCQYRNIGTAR
Experimental: as §1, §2

[5] = biological target: T5, hM5 mAChR (Homo sapiens, UniProt P08912); experiment: [3H]NMS inhibition radioligand binding, hM5 in CHO-K1 cell membranes; conditions: [3H]NMS, CHO-K1 cell membranes, mean ± S.E.M.; for Ki: read-out: pKi hM5 (converted)
T5 construct: expressed in transfected cells; host or cells: CHO-K1 (membrane preparation)
T5 sequence (P08912 1-532): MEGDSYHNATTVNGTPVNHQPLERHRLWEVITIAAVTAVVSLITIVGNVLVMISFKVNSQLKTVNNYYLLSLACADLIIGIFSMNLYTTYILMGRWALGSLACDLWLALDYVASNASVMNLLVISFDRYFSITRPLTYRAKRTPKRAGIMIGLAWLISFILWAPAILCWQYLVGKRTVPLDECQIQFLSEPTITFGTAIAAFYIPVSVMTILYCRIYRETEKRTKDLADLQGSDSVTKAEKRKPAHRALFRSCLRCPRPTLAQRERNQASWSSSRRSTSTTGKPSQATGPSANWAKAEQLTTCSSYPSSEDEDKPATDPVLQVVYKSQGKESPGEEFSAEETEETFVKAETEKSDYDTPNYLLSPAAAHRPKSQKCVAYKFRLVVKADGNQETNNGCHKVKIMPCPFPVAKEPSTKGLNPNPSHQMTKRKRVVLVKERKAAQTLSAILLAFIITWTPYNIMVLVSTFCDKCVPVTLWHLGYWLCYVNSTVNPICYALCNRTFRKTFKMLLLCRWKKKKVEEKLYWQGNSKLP
Experimental: as §1, §2

Row | Compound | pKi hM1 [1] | pKi hM2 [2] | pKi hM3 [3] | pKi hM4 [4] | pKi hM5 [5] | M3/M2 selectivity ratio ([3]; from binding affinities at hM3 and hM2) | Ki [1] [nM] | Ki [2] [nM] | Ki [3] [nM] | Ki [4] [nM] | Ki [5] [nM]
1 | C[N+](C)(C)C[C@@H]1CO[C@H](c2ccc([S+]([O-])c3ccccc3)cc2)CO1.[I-] (relative stereo) [16a, 1-((2R*,5R*)-5-(4-(Phenylsulfinyl)phenyl)-1,4-dioxan-2-yl)-N,N,N-trimethylmethanaminium Iodide] | <5 | 5.52 ± 0.02 | <5 | <5 | 5.21 ± 0.08 |  |  |  |  |  | 
2 | C[N+](C)(C)C[C@@H]1CO[C@@H](c2ccc([S+]([O-])c3ccccc3)cc2)CO1.[I-] (relative stereo) [16b, 1-((2R*,5S*)-5-(4-(Phenylsulfinyl)phenyl)-1,4-dioxan-2-yl)-N,N,N-trimethylmethanaminium Iodide] | 5.17 ± 0.09 | 6.38 ± 0.10 | 5.88 ± 0.14 | 5.42 ± 0.02 | 5.72 ± 0.15 |  |  |  |  |  | 
3 | C[N+](C)(C)C[C@@H]1CO[C@H](c2ccc(S(=O)(=O)c3ccccc3)cc2)CO1.[I-] (relative stereo) [17a, 1-((2R*,5R*)-5-(4-(Phenylsulfonyl)phenyl)-1,4-dioxan-2-yl)-N,N,N-trimethylmethanaminium Iodide] | <5 | 6.39 ± 0.04 | 5.14 ± 0.10 | <5 | 5.05 ± 0.08 |  |  |  |  |  | 
4 | C[N+](C)(C)C[C@@H]1CO[C@@H](c2ccc(S(=O)(=O)c3ccccc3)cc2)CO1.[I-] (relative stereo) [17b, 1-((2R*,5S*)-5-(4-(Phenylsulfonyl)phenyl)-1,4-dioxan-2-yl)-N,N,N-trimethylmethanaminium Iodide] | <5 | <5 | <5 | <5 | <5 |  |  |  |  |  | 
5 | C[N+](C)(C)C[C@@H]1CO[C@@H](c2ccccc2)[C@H](c2ccccc2)O1.[I-] (relative stereo) [18a, 1-((2R*,5S*,6S*)-5,6-Diphenyl-1,4-dioxan-2-yl)-N,N,N-trimethylmethanaminium Iodide] | 5.85 ± 0.09 | 5.72 ± 0.09 | 5.33 ± 0.12 | 5.25 ± 0.08 | 5.34 ± 0.07 |  |  |  |  |  | 
6 | C[N+](C)(C)C[C@@H]1CO[C@H](c2ccccc2)[C@@H](c2ccccc2)O1.[I-] (relative stereo) [18b, 1-((2R*,5R*,6R*)-5,6-Diphenyl-1,4-dioxan-2-yl)-N,N,N-trimethylmethanaminium Iodide] | 6.30 ± 0.09 | 5.65 ± 0.09 | 5.81 ± 0.10 | 5.40 ± 0.09 | 5.52 ± 0.08 |  |  |  |  |  | 
7 | C[N+](C)(C)C[C@@H]1CO[C@@H](c2ccccc2)[C@@H](c2ccccc2)O1.[I-] (relative stereo) [18c, 1-((2R*,5S*,6R*)-5,6-Diphenyl-1,4-dioxan-2-yl)-N,N,N-trimethylmethanaminium Iodide] | 7.19 ± 0.07 | 6.62 ± 0.08 | 6.45 ± 0.01 | 6.40 ± 0.06 | 6.21 ± 0.01 |  |  |  |  |  | 
8 | CN(C)C[C@@H]1COC[C@](c2ccccc2)(C2CCCCC2)O1 (relative stereo) [33b, 1-((2R*,6R*)-6-Cyclohexyl-6-phenyl-1,4-dioxan-2-yl)-N,N-dimethylmethanamine] | 8.86 ± 0.16 | 7.88 ± 0.08 | 8.72 ± 0.10 | 8.62 ± 0.12 | 8.62 ± 0.17 | 7.0 |  |  |  |  | 
9 | C[N+](C)(C)C[C@@H]1COC(c2ccccc2)C(c2ccccc2)(c2ccccc2)O1 (stereo in doubt) [19a, 1-((2R*,5S*)-5,6,6-Triphenyl-1,4-dioxan-2-yl)-N,N,N-trimethylmethanaminium Iodide] |  |  |  |  |  |  | 676 | 4370 | 2000 | 3890 | 3980
10 | C[N+](C)(C)C[C@@H]1COC(c2ccccc2)C(c2ccccc2)(c2ccccc2)O1 (stereo in doubt) [19b, 1-((2R*,5R*)-5,6,6-Triphenyl-1,4-dioxan-2-yl)-N,N,N-trimethylmethanaminium Iodide] |  |  |  |  |  |  | 550 | 2140 | 1100 | 1170 | 1450
